Measured values published in PubChem BioAssay (NCI).
Values joined by “and” are separate entries in the source; they are usually repeats but may differ in a detail not shown here. Equal entries are not always repeated.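 1) Cells in 96-well plates. 2) Compound, 48 h, 5 concentrations. 3) Linear interpolation between surrounding doses. 4) Unreached endpoint = highest concentration. Here, GI50 denotes the concentration required for 50% inhibition of growth. TGI marks complete inhibition of growth.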

What was measured:
Assay in all cases: inhibition of tumour cell growth, NCI panel, 48 h
CAKI-1 renal = system: CAKI-1 renal
HL-60(TB) leukemia = system: HL-60(TB) leukemia
HCT-116 colon = system: HCT-116 colon
MDA-MB-231 breast = system: MDA-MB-231 breast
SK-MEL-28 melanoma = system: SK-MEL-28 melanoma
M14 melanoma = system: M14 melanoma
KM12 colon = system: KM12 colon
HT29 colon = system: HT29 colon
OVCAR-3 ovarian = system: OVCAR-3 ovarian
NCI-H460 lung = system: NCI-H460 lung

SMILES | GI50 (CAKI-1 renal) | TGI (CAKI-1 renal) | GI50 (HL-60(TB) leukemia) | TGI (HL-60(TB) leukemia) | GI50 (HCT-116 colon) | TGI (HCT-116 colon) | GI50 (MDA-MB-231 breast) | TGI (MDA-MB-231 breast) | GI50 (SK-MEL-28 melanoma) | TGI (SK-MEL-28 melanoma) | GI50 (M14 melanoma) | TGI (M14 melanoma) | GI50 (KM12 colon) | TGI (KM12 colon) | GI50 (HT29 colon) | TGI (HT29 colon) | GI50 (OVCAR-3 ovarian) | TGI (OVCAR-3 ovarian) | GI50 (NCI-H460 lung) | TGI (NCI-H460 lung)
N=C(N)c1ccc(-c2ccc(-c3ccc(F)cc3)o2)o1 | 1710 nM | 3.56 µM | 1.8 µM | 4.4 µM | 1.18 µM | 2.59 µM | 1.57 µM | 3.33 µM | 1630 nM | 3.18 µM | 1230 nM | 2.79 µM | 1440 nM | 3.41 µM | 0.606 µM | 1.94 µM | 1840 nM | 4.16 µM | 1760 nM | 3.36 µM
COC(=O)[C@]12CC=C3O[C@@H]4OC5(CCCCC5)O[C@@H]4[C@H]3C1C(=O)C=CC2=O (stereo partly specified) |  | 30.4 µM |  | 25.9 µM |  | 32.4 µM |  | 32.8 µM |  | 34.2 µM |  | 32 µM |  | 20.7 µM |  | 34.6 µM |  | 28.7 µM |  | 45.5 µM
O=C1OCC2=C1C(c1cccc(C(F)(F)F)c1)c1cc3c(cc1N2CCO)CCC3 (stereo unspecified) | 174 nM | 7.46 µM | 0.133 µM | 0.427 µM | 0.175 µM | 6.55 µM | 0.223 µM | 6.76 µM | 1410 nM | 12.1 µM | 159 nM | 6.2 µM | 157 nM | 6.37 µM | 0.167 µM | 5.27 µM | 161 nM | 2.21 µM | 167 nM | 5.4 µM
COC(=O)[C@@H]1CCCN1C(=O)[C@H]1CCCN1C(=O)[C@@H](Cc1c[nH]c2ccccc12)NC(=S)Nc1cc(C(F)(F)F)cc(C(F)(F)F)c1 | 2750 nM | 8.99 µM | 2.7 µM | 6.35 µM | 1.96 µM | 4.14 µM | 2.34 µM | 5.6 µM | 3050 nM | 10.2 µM | 2410 nM | 5.86 µM | 2840 nM | 8.01 µM | 1.97 µM | 3.84 µM | 2480 nM | 5.71 µM | 2010 nM | 4.26 µM
COc1cc2c3c(n(C)c(=O)c2cc1OC)-c1cc2c(cc1/C3=C/[C@H](N)CCCCN)OCO2 | 1230 nM | 11.5 µM | 13.4 µM | > 100 µM | 0.564 µM | 2.24 µM | 0.941 µM | 6.22 µM | 1890 nM | 11.2 µM | 1590 nM | 4.55 µM | 2070 nM | > 58.5 µM | 1.65 µM | > 100 µM | 1450 nM | 9.89 µM | 196 nM | 1.62 µM
Cc1ccccc1C(C(=O)NC1CCCCC1)N(C(=O)Cn1ccnc1C)c1cccc(F)c1 (stereo unspecified) | > 57400 nM | > 100 µM | > 100 µM | > 100 µM | 46.2 µM | > 100 µM | 35.8 µM | > 100 µM | > 100000 nM | > 100 µM | > 100000 nM | > 100 µM | > 100000 nM | > 100 µM | > 100 µM | > 100 µM | > 69500 nM | > 100 µM | > 100000 nM | > 100 µM
CCN1CCC(CC(=O)Nc2n[nH]c3nc(-c4cccs4)c(Br)cc23)CC1 | 4290 nM | > 25 µM | 7.31 µM | 14.8 µM | 7.81 µM | > 23.4 µM | 14.7 µM | > 25 µM | 5310 nM | 9.85 µM | 6880 nM | 14.6 µM | 5810 nM | 13.8 µM | 4.47 µM | 11.1 µM | 10400 nM | > 25 µM | 10100 nM | > 25 µM
N#C[C@H]1Nc2ccccc2[C@@H](O)C1O (stereo partly specified) |  | > 100 µM |  | > 100 µM |  | > 100 µM |  | > 100 µM |  | > 100 µM |  | > 100 µM |  | > 100 µM |  | > 100 µM |  | > 100 µM |  | > 100 µM
O=[N+]([O-])c1ccc(N=Nc2c(O)[nH]c3ccccc23)cc1 |  | 40.4 µM |  | > 77.8 µM |  | > 96.4 µM |  | > 58.9 µM |  | > 100 µM |  | > 100 µM |  | > 100 µM |  | > 100 µM |  | 35.2 µM |  | > 100 µM
CCC(=O)c1ccc2c(c1)N(CCCN1CCN(CCO)CC1)c1ccccc1S2 | 13400 nM | 27.5 µM | 12.7 µM | 30.3 µM | 10.5 µM | 22.9 µM | 13.1 µM | 27.4 µM | 2750 nM | 7.75 µM | 2220 nM | 4.63 µM | 14900 nM | 28.7 µM | 3.98 µM | 14.7 µM | 15600 nM | 29.8 µM | 17600 nM | 33.5 µM
COc1cc(/C=C2\C(=O)Nc3ccccc32)cc(OC)c1OC | 18900 nM | > 100 µM | 8.15 µM | > 100 µM | 17.3 µM | > 100 µM | 11.4 µM | 78.1 µM | 41800 nM | > 100 µM | 21200 nM | 79.5 µM | 11700 nM | 98 µM | 19.8 µM | > 100 µM | 25400 nM | > 100 µM | 11800 nM | > 100 µM
COc1ccc2c(c1)[C@@]1(C)CCC3c4ccc(O)cc4CCC3C1C2 (stereo partly specified) | 17100 nM | 32.7 µM | 18.1 µM | 39.1 µM | 14.4 µM | 27.5 µM | 13.8 µM | 27.8 µM | 15200 nM | 30.3 µM | 18900 nM | 33.5 µM | 15400 nM | 36.8 µM | 3.96 µM | 17.5 µM | 14700 nM | 29.1 µM | 9020 nM | 23.2 µM
COc1cc2ncn(-c3cc(OCc4ccccc4S(C)(=O)=O)c(C#N)s3)c2cc1OC | > 25000 nM | > 25 µM | > 25 µM | > 25 µM | > 25 µM | > 25 µM | > 25 µM | > 25 µM | > 25000 nM | > 25 µM | > 25000 nM | > 25 µM | > 25000 nM | > 25 µM | > 25 µM | > 25 µM | > 25000 nM | > 25 µM | > 25000 nM | > 25 µM
CO/C(=N\N=C\c1cccc(C(F)(F)F)c1)c1ccncc1 |  | 9.48 µM | 2.45 µM | 7.77 µM and 18 µM |  | > 100 µM | 10.8 µM | > 100 µM |  | > 100 µM |  | 94.4 µM |  | > 100 µM | 3.47 µM | 19 µM |  | 84.1 µM |  | 48.8 µM
Cc1ccc2nc(N/N=C/c3cccc(C)n3)cc(C)c2c1 |  | 31 µM |  | > 100 µM |  | 32.1 µM |  | 36 µM |  | 33.2 µM |  | 46.9 µM |  | 27.7 µM |  | 27.3 µM |  | 30 µM |  | 23.2 µM
CN(C)S(=O)(=O)c1ccc(Nc2ccc(O)c3c2C(=O)c2c([N+](=O)[O-])ccc(O)c2C3=O)cc1 |  | > 100 µM |  | > 100 µM |  | > 100 µM |  | > 100 µM |  | > 100 µM |  | > 100 µM |  | > 100 µM |  | > 100 µM |  | > 100 µM |  | > 100 µM
COc1ccc2c(c1)C(=O)c1c-2n(CCCN2CCOCC2)c(=O)c2cc([N+](=O)[O-])ccc12 | < 10 nM | 0.53 µM | < 0.0193 µM | 4.03 µM | < 0.01 µM | 0.0454 µM | 0.661 µM | 17.3 µM |  | 16.2 µM | < 10 nM | < 0.01 µM | < 10 nM | 0.544 µM | < 0.01 µM | > 100 µM | < 11.3 nM | 1.49 µM | < 10 nM | 0.069 µM
COc1ccc(-n2c(C)nc3c(c(C)nn3-c3ccccc3)c2=O)cc1 | 46.1 nM | > 50.1 µM | 0.0353 µM | 0.22 µM | 0.0443 µM | 7.91 µM | 0.311 µM | > 100 µM | 2070 nM | > 100 µM | 49.1 nM | > 100 µM | 53.2 nM | > 100 µM | 0.0467 µM | > 31.9 µM | 41.4 nM |  | 47.8 nM | > 40 µM
